Several values for one entry are separate records, joined by “and”; a condition that tells them apart may be missing. Equal entries are not always repeated. Activity calls are given as the source filed them.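 How the source made its calls: active means EC50 no more than a set limit of log units above the highest dose; inactive means the rest.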 A value given as a limit tells only on which side of the number the result lay.

The target in this test is S. pyogenes SKKanGAS, kanamycin survival, BacTiterGlo, 6 h. Briefly: SKKanGAS survival reduction under kanamycin, dose response, streptokinase promoter inhibitor project, SKKanGAS strain, luminescence, dose confirmation (AID 1902).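 Further: lower survival reflects blocked streptokinase promoter driving kanamycin resistance gene.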
With `Cc1nn2c(N3CCN(C(=O)c4ccco4)CC3)cc(C(C)(C)C)nc2c1-c1ccccc1`, the EC50 (commonly the midpoint of the concentration-response curve) is 6.19 µM.

For the molecule `O=C(CCN1C(=O)/C(=C/c2ccccc2Cl)SC1=S)NNC(=O)c1ccccc1O`, the EC50 is 3.35 µM.

On to `Cc1cccc(OCC(=O)Nc2ccc(C(=O)Nc3ccccc3C(=O)O)cc2)c1C`, for which the EC50 was 2.41 µM.

In the case of `O=C(CSc1ccc2ccccc2n1)N/N=C/c1ccccc1O`, the EC50 is 2.12 µM.

As for `COc1ccc(C(=O)N/N=C/c2cc(Br)ccc2O)cc1OC`, the EC50 was 1.28 µM.

In the case of `COc1ccc(C(=O)CSc2nc(-c3ccccn3)nc(C)c2Cl)cc1`, the concentration giving a half-maximal response (EC50) is 1.4 µM.

In the case of `O=C1c2ccccc2CC1(Cc1ccccc1)Cc1ccccc1`, the EC50 is 4.35 µM.

As to `O=C(CNC(=O)c1ccc(F)cc1)N/N=C/c1cc(Br)ccc1OCc1ccccc1`, the 50% effective concentration (EC50) was 12.2 µM.

Consider `CC(C)C(Sc1nc(-c2ccccc2)cc(-c2ccccc2)c1C#N)C(=O)O` (centres undefined), for which the EC50 is 2.04 µM.

On to `O=C(NC(c1ccc(Cl)cc1)c1cc(Cl)c2cccnc2c1O)c1cccnc1` (centres undefined), for which the EC50 is 0.278 µM.

Take `O=C(CC(=O)c1cc(Cl)ccc1O)c1ccccc1`: the EC50 was 1.01 µM.

On to `Cc1cccc(-c2nnc(NC(=O)c3ccc(Cl)cc3)o2)c1`, for which the EC50 was 0.097 µM.

For the molecule `O=C(COn1nnc2ccc(C(F)(F)F)cc21)Nc1nnc(-c2ccccc2)o1`, the EC50 is 2.51 µM.

As to `NC(=O)c1ccc(NC(=O)COC(=O)c2c3c(nc4ccccc24)/C(=C\c2ccc4c(c2)OCO4)CCC3)cc1`, the EC50 was 5.31 µM.

Turning to `Oc1ccccc1N=Nc1ccccc1O`, the EC50 is 0.961 µM.

For the molecule `CC(C)C[C@H](NC(=O)c1nc[nH]c1C(=O)NC1CCN(C(=O)OC(C)(C)C)CC1)C(=O)OCc1ccccc1`, the EC50 is 5.47 µM.

As to `COC(=O)c1c(NC(NC(=O)C(C)(C)C)C(Cl)(Cl)Cl)sc2c1CCC2` (centres undefined), the EC50 is 3.28 µM.

As for `Cc1cccc(OC(=O)c2sc3ncn(C)c(=O)c3c2C)c1`, the EC50 is 4.09 µM.

In the case of `CN(C)[C@@H]1C(=O)C(C(N)=O)=C(O)[C@@]2(O)C(=O)C3=C(O)c4c(O)cccc4[C@@](C)(O)C3[C@H](O)C12` (some centres undefined), the concentration giving a half-maximal response (EC50) is 0.095 µM.

In the case of `Cc1cccc(CS(=O)(=O)c2nnc([C@H](Cc3ccccc3)NC(=O)OC(C)(C)C)o2)c1`, the EC50 is 3.88 µM.

As to `Cc1ccc(F)c(NC(=O)/C(C#N)=C(\O)c2ccc(C(C)(C)C)cc2)c1`, the half-maximal effective concentration (EC50) is 6.33 µM.

As for `COc1ccc(CNCC(O)(c2ccc(Cl)cc2)c2ccc(Cl)cc2)cc1`, the EC50 was 3.51 µM.

For the molecule `O=C(O)c1cnc(-c2ccccc2)nc1Sc1ccc(Cl)cc1Cl`, the EC50 is 9.74 µM.

For the molecule `CCOc1ccccc1NC(=O)c1nc(S(=O)(=O)Cc2ccccc2)ncc1Cl`, the EC50 is 8.85 µM.

On to `Cc1ccccc1/C=C/C(=O)c1ccc([N+](=O)[O-])o1`, for which the EC50 was 4.61 µM.

Consider `CC1CC(C)CN(S(=O)(=O)c2ccc(C(=O)Nc3nnc(C4CC4)o3)cc2)C1` (centres undefined), for which the concentration for a half-maximal effect (EC50) is 1.03 µM.

Turning to `Cc1ccc(C(C)C)cc1OCC(=O)Nc1ccccc1N1CCCC1`, the EC50 is 3.56 µM.

As to `Nc1sc(-c2ccccc2)cc1C(=O)N/N=C/c1ccc(Cl)cc1`, the EC50 was 5.73 µM.

As for `S=C(NCCC(c1ccccc1)c1ccccc1)Nc1cccc(Cl)c1`, the EC50 is 5.82 µM.

For the molecule `O=C(O)c1ccc(NC(=S)NC(=O)c2cccc(COc3ccccc3)c2)cc1`, the EC50 was 4.45 µM.

Take `COc1ccc(-c2oc3ccc(N4CCOCC4)cc3c2C#CC2(O)CCCCC2)cc1`: the concentration giving a half-maximal response (EC50) is 2.11 µM.

Consider `CCC(NC(=S)NC1CCCCC1)c1ccc(C(C)C)cc1` (centres undefined), for which the EC50 is 5.2 µM.

Turning to `Oc1ccccc1N=Nc1nc(-c2ccccc2)c(-c2ccccc2)[nH]1`, the EC50 is 0.303 µM.

Consider `Cc1ccnc(NS(=O)(=O)c2ccc(NC(=O)c3cc(-c4ccc(Br)cc4)nc4ccccc34)cc2)n1`, for which the EC50 was 3.34 µM.

In the case of `Cc1ccc(S(=O)(=O)N2CCCCC2)cc1NC(=O)CN1C(=O)CN(C)C1=O`, the EC50 was > 15 µM (inactive).

With `CC(C)COCc1ccc(O)c2ncccc12`, the concentration giving a half-maximal response (EC50) was 1.02 µM.

As to `Cc1nc(NC(=O)c2ccc(Cl)cc2)sc1-c1csc(Nc2cccc(F)c2)n1`, the EC50 was 2.69 µM.

With `COc1cccc(-c2nn(-c3ccccc3)cc2C(=O)Nc2nccs2)c1`, the EC50 was 2.98 µM.

Turning to `O=C(Nc1ccccc1)Nc1cc(Cl)cc(Cl)c1`, the EC50 is 6.8 µM.

As for `CCCCC(CC)CN1C(=O)/C(=C/c2ccncc2)SC1=S` (centres undefined), the EC50 is 2.83 µM.

In the case of `FC(F)(F)c1cc(CCN2C(=S)NC[C@@H]2CC2CCCCC2)cc(C(F)(F)F)c1`, the concentration giving a half-maximal response (EC50) is 3.7 µM.

As for `CCCn1c(=O)c(C(=O)N/N=C/c2ccc(F)cc2)c(O)c2ccccc21`, the EC50 was 3.19 µM.

On to `O=C(Nc1nc(-c2ccccn2)cs1)c1cccc(-n2cnnn2)c1`, for which the EC50 is 2.3 µM.

For `COc1ccc(C(=O)N2CCc3c([nH]c4ccccc34)C2C(F)(F)F)cc1` (centres undefined), the EC50 was > 15 µM (inactive).

As to `CC(=O)N1CCN(c2ccccc2NC(=O)c2cccs2)CC1`, the EC50 is > 15 µM (inactive).

In the case of `Cc1ccc2nc(N3C(=O)CNC3=S)sc2c1`, the EC50 was 4.32 µM.

Take `COc1ccc(C2CC(c3cccs3)=NN2C(=O)c2ccc(Br)o2)cc1` (centres undefined): the EC50 was 5.63 µM.

As for `Cc1cc(C)c2nc(NNC(=O)c3ccc(S(=O)(=O)N4CCCC(C)C4)cc3)sc2c1` (centres undefined), the EC50 was 0.297 µM.

For `CN(C)CCCNC(=S)NCC(c1ccc(Cl)cc1Cl)c1c[nH]c2ccccc12` (centres undefined), the EC50 was 7.22 µM.

Turning to `O=C(COc1cccc(Cl)c1)Nc1ccccc1N1CCCCC1`, the EC50 is 5.29 µM.

In the case of `CCCc1cc(NCc2ccccn2)n2nc(C)c(-c3ccccc3)c2n1`, the EC50 is 6.4 µM.

Turning to `Cc1cc(Cl)c2oc(C(=O)N3CCN(C(=O)c4ccco4)CC3)c(C)c2c1`, the EC50 is 4.45 µM.

For the molecule `CC1CCN(Cc2c(C(=O)N/N=C/c3cc(Br)ccc3O)nnn2-c2nonc2N)CC1`, the EC50 is 10.2 µM.

In the case of `O=C(CSc1nc(N2CCOCC2)nc(N2CCOCC2)n1)Nc1cccc(C(F)(F)F)c1`, the EC50 was > 15 µM (inactive).

As to `OCCN(CCO)c1ccc(C(c2ccccc2Cl)c2ccc(N(CCO)CCO)cc2Cl)c(Cl)c1`, the EC50 is 5.06 µM.

`Cc1ccc(C(=O)NNC2=Nc3cccc4cccc2c34)cc1`: the EC50 was 3.14 µM.

For the molecule `COc1ccc(-c2nc(-c3ccc4c(c3)OCO4)[nH]c2-c2ccc(OC)cc2)cc1`, the EC50 is 4.71 µM.

For the molecule `CCCCCCCn1c(NC(=O)CC)nc2ccccc21`, the EC50 is 0.342 µM.

Regarding `COC(=O)c1c(NC(=O)c2ccc([N+](=O)[O-])o2)sc2c1CCN(C(C)C)C2`, the EC50 was 4 µM.

As for `Cc1ccccc1OCC(=O)Nc1ccccc1N1CCCCC1`, the half-maximal effective concentration (EC50) is 8.71 µM.

Regarding `CN1C(=O)/C(=C/c2cccn2-c2ccc3ccccc3c2)C(=O)NC1=S`, the EC50 was 5.74 µM.

`Cc1ccc(/C=C2/Sc3ccc(C(=O)N4CCN(C)CC4)cc3NC2=O)cc1`: the EC50 is 13.4 µM.

In the case of `CC1CCN(c2nc(-c3ccccc3)cc(C(F)(F)F)n2)CC1`, the EC50 was 4.58 µM.

On to `O=C(Nc1nnc(-c2ccccc2)o1)c1ccc(Cl)cc1`, for which the EC50 was 0.254 µM.

For the molecule `COc1cc(/C=C/C(=O)OC2CC3CCC2(C)C3(C)C)ccc1O` (centres undefined), the EC50 was 7.08 µM.

With `Cc1noc(C)c1CSc1nc2ccccc2nc1NS(=O)(=O)c1ccc(Cl)cc1`, the EC50 was 3.13 µM.

For `C[C@H]1COc2c(C3(N)CC3)c(F)cc3c(=O)c(C(=O)O)cn1c23`, the EC50 was 6.2 µM.

With `COc1ccc(NS(=O)(=O)c2cccc(NC(=O)CCC(=O)c3ccc(Cl)cc3)c2)cc1`, the EC50 is 7.85 µM.

Consider `CC(/C=C/c1ccc(N(C)C)cc1)=N\N=C1\NC(=O)CC(C(=O)Nc2ccccc2)S1` (centres undefined), for which the EC50 was 3.16 µM.

With `CCC(C)c1ccc(C2C3=C(Nc4nc(N)[nH]c(=O)c42)c2ccccc2C3=O)cc1` (centres undefined), the EC50 is 3.71 µM.

In the case of `CC(C)(C)Nc1nc(-c2ccccn2)nc2ccccc12`, the EC50 is 0.215 µM.

Consider `O=C(Nc1nnc(-c2ccco2)o1)c1ccc(Cl)cc1`, for which the EC50 is 1.21 µM.

For the molecule `CCCC(=O)NC(c1ccc(C)cc1)c1ccc2cccnc2c1O` (centres undefined), the EC50 is 4.16 µM.

For `C[C@@H](C[C@@H](O)[C@H](O)C(C)(C)O)[C@@H]1CC[C@]2(C)C3=CC[C@H]4C(C)(C)C(=O)CC[C@]4(C)[C@H]3CC[C@@]12C`, the EC50 was 2.46 µM.

Consider `Cc1ccc(/C=C/C(=O)NC(=S)Nc2ccc(S(=O)(=O)Nc3cc(C)on3)cc2)cc1`, for which the EC50 was 9.27 µM.

On to `O=S(=O)(Nc1cccc(-c2ccc(N3CCOCC3)nn2)c1)c1ccc(Cl)c(Cl)c1`, for which the EC50 was 9.66 µM.

As to `CCCCN(CCCC)C(=S)N/N=C/c1c(C)[nH]n(-c2ccccc2)c1=O`, the EC50 was 0.399 µM.

`CCSc1nsc(NC(=O)Nc2cccc(F)c2)n1`: the EC50 was 7.63 µM.

With `Cc1cccc(C(=O)OCC(=O)Nc2nnc(-c3ccccc3)o2)c1O`, the EC50 is 2.2 µM.

As to `C=CCn1c(=O)c(C(=O)NCc2ccccc2)c(O)c2ccccc21`, the EC50 is 3.32 µM.

For `Cc1cc(C)c2nc(NNC(=O)c3ccc(S(=O)(=O)N4CCc5ccccc5C4)cc3)sc2c1`, the EC50 was 0.538 µM.

On to `COc1ccc(Nc2ncnc3scc(-c4ccc(OC)cc4)c23)cc1`, for which the EC50 was > 15 µM (inactive).

Regarding `Cc1ccc(C(O)(C(=O)NNc2ccc3ccccc3n2)c2ccc(C)cc2)cc1`, the EC50 is 2.04 µM and 2.98 µM.

In the case of `CC(C)=CCCC1(C)C=Cc2c(c(C)cc3c2[nH]c2cc(O)ccc23)O1` (centres undefined), the EC50 was 2.65 µM.

Regarding `Cc1nn2c(NCc3ccccn3)cc(C(C)C)nc2c1-c1ccccc1`, the EC50 was 5.94 µM.

Take `O=C(c1cc(-c2cccs2)nc2ccccc12)N1CCN(c2ccccc2O)CC1`: the EC50 was 13.4 µM.

Take `C/C(=N\Nc1ccc(C(=O)O)cc1)c1ccc2c(c1)Nc1ccccc1S2`: the EC50 is 2.45 µM.

Regarding `Nc1nonc1-c1nc2ccccc2n1CC(=O)N/N=C\c1ccc(-c2ccc(Cl)cc2)o1`, the EC50 was 1.07 µM.

Turning to `Cc1cccc2[nH]c3c(N4CC=C(c5ccc(F)cc5)CC4)ncnc3c12`, the 50% effective concentration (EC50) is 2.14 µM.

Turning to `S=c1[nH]cnc2scc(-c3ccc(Cl)cc3)c12`, the EC50 was 9.77 µM.

Consider `FC(F)(F)c1cccc(-c2nc3nc(Cl)c(Cl)nc3[nH]2)c1`, for which the EC50 is 6.58 µM.

`CCCNC1=C(C)C(=O)C2=C(C1=O)C(COC(N)=O)[C@]1(OC)C3NC3CN21` (some centres undefined): the EC50 is less than 0.06 µM.

Take `COc1ccc(C(=O)NNC(=S)NC(=O)/C=C/c2cccs2)cc1`: the EC50 was 0.598 µM.

Consider `COc1c(N2CCN(C(=S)Nc3ccccc3F)C(C)C2)c(F)cc2c(=O)c(C(=O)O)cn(C3CC3)c12` (centres undefined), for which the EC50 was 2.67 µM.
